Experiments:
[1] = system: LPS-induced TNF-α release in peripheral blood mononuclear cells (PBMCs); assay: PDE4 inhibitory activity in the PBMCs assay (LPS-induced TNF-α release); assay type: cell-based; settings: PBMC; human PBMCs, LPS 3 ng/ml, 18 hours; read-out: IC50 in the PBMCs assay (50% inhibition of LPS-induced TNF-α release)
Experimental: The assay, which is based on the known inhibitory activity exerted by PDE4 inhibitors on the lipopolyshaccarides (LPS)-induced tumour necrosis factor-alpha (TNF-α release in peripheral blood mononuclear cells (PBMCs), is performed according to a method previously described (Hatzelmann A et al., J. Pharmacol. Exp. Ther., 2001; 297:267-279; and Draheim R et al., J. Pharmacol. Exp. Ther., 2004; 308:555-563. Cryopreserved human PBMCs, (100 μl/well) are incubated in 96-well plates (10^5 cells/well), for 30 minutes, in the presence or absence (50 microl) of the test compounds whose concentrations ranged from 10^−12 M to 10^−6 M. Subsequently, LPS (3 ng/ml) is added. After 18 hours of incubation at 37° C. in a humidified incubator under an atmosphere of 95% air and 5% CO2, culture medium is collected and TNF-α measured by ELISA.
The results are expressed as mean±95% confidence limits of the molar concentration of the test compound producing 50% inhibition of LPS-induced TNF-α release (IC50). […] The effects of the tested compounds are calculated as percentage of inhibition of TNF-α release, assuming LPS-induced TNF-α production in the absence of inhibitor compound as 100% and basal TNF-α production of PBMCs in the absence of LPS as 0%.

LPDE4 [2] = assay: Ability to inhibit low affinity LPDE4 (cAMP disappearance) versus competing for high affinity HPDE4 ([H3]rolipram binding); assay type: biochemical
Description: Advantageously the compounds of the invention are characterized by a selectivity toward LPDE4 higher than that toward HPDE4 as obtained by the determination of their IC50. In the case of LPDE4, the IC50 is the molar concentration of the test compound producing 50% inhibition of cAMP disappearance, assessed as described in Cortijo J et al., Br. J. Pharmacol., 1993, 108: 562-568, while in the case of HPDE4, the IC50 is the molar concentration of the test compound producing 50% inhibition of the binding of [H^3] rolipram, assessed as described in Duplantier A J et al., J. Med. Chem., 1996; 39: 120-125. Preferably the HPDE4/LPDE IC50 ratio for the compounds of the invention is higher than 10, more preferably higher than 100, even more preferably higher than 300.
The affinity toward LPDE4 and HPDE4 is assessed as previously described respectively in Cortijo J et al., Br. J. Pharmacol., 1993, 108: 562-568 and Duplantier A J et al., J. Med. Chem., 1996; 39: 120-125. The activity of compounds 1, 2, 4, 5, 6, and 7 is evaluated.

LPDE4 [3] = settings: literature, Giembycz et al. 2001; cited from earlier work
HPDE4 = settings: literature, Giembycz et al. 2001; cited from earlier work

| inhibition of LPDE4 (affinity) (LPDE4 [2]) | SMILES | IC50 [1] [nM] | HPDE4/LPDE4 ratio (LPDE4 [3]) | IC50 (LPDE4 [3]) [nM] | IC50 (HPDE4) [nM] |
| --- | --- | --- | --- | --- | --- |
| nanomolar affinity | COc1ccc(C(=Cc2c(Cl)c[n+]([O-])cc2Cl)OC(=O)c2ccccc2)c2c1oc1ccccc12 [Compound 7, Benzoic acid 2-(3,5-dichloro-1-oxy-pyridin-4-yl)-1-(4-methoxy-dibenzofuran-1-yl)-vinyl ester] | 1 to 150 | – | – | – |
| nanomolar affinity | COc1ccc(C(=Cc2c(Cl)cncc2Cl)OC(=O)c2ccccc2)c2c1oc1ccc([N+](=O)[O-])cc12 [Compound 1, Benzoic acid 2-(3,5-dichloro-pyridin-4-yl)-1-(4-methoxy-8-nitro-dibenzofuran-1-yl)-vinyl ester] | 1 to 150 | – | – | – |
| – | COc1ccc([C@]2(C#N)CC[C@@H](C(=O)O)CC2)cc1OC1CCCC1 [cilomilast] | – | about 1.3 | 90 | 120 |
| nanomolar affinity | COc1ccc(C(=Cc2c(Cl)cncc2Cl)OC(=O)c2ccccc2)c2c1oc1ccc(N)cc12 [Compound 4, Benzoic acid 2-(3,5-dichloro-pyridin-4-yl)-1-(4-methoxy-8-amino-dibenzofuran-1-yl)-vinyl ester] | 1 to 150 | – | – | – |
| nanomolar affinity | COc1ccc(C(=Cc2c(Cl)cncc2Cl)OC(=O)c2ccccc2)c2c1oc1ccccc12 [Compound 2, Benzoic acid 2-(3,5-dichloro-pyridin-4-yl)-1-(4-methoxy-dibenzofuran-1-yl)-vinyl ester] | 1 to 150 | – | – | – |
| nanomolar affinity | COc1ccc(C(=Cc2c(Cl)cncc2Cl)OC(=O)c2ccccc2)c2c1oc1ccc(NS(C)(=O)=O)cc12 [Compound 5, Benzoic acid 2-(3,5-dichloro-pyridin-4-yl)-1-(8-methanesulfonylamino-4-methoxy-dibenzofuran-1-yl)-vinyl ester] | 1 to 150 | – | – | – |

| SMILES | inhibition of LPDE4 (affinity) (LPDE4 [2]) | IC50 [1] [nM] | HPDE4/LPDE4 ratio (LPDE4 [3]) | IC50 (LPDE4 [3]) [nM] | IC50 (HPDE4) [nM] |
| --- | --- | --- | --- | --- | --- |
| COc1ccc(C(=Cc2c(Cl)c[n+]([O-])cc2Cl)OC(=O)c2ccccc2)c2c1oc1ccc([N+](=O)[O-])cc12 [Compound 6, Benzoic acid 2-(3,5-dichloro-1-oxy-pyridin-4-yl)-1-(4-methoxy-8-nitro-dibenzofuran-1-yl)-vinyl ester] | nanomolar affinity | – | – | – | – |
